Experimental data from patent US5939094A (priority 1996, dated 1999).
Where two headings read alike, the source gives them in different places. Each block holds one compound with its values, some of them ahead of it.

Legend:
Parkinson's disease = details: chronic oral levodopa, after initial 3-6 years; cited from earlier work
[1] = emulsions with apomorphine HCl and acrylic acid polymer gels, pH 7.6
skin = details: rabbit, in vivo, 0.5 mg/kg
in vivo = details: rabbit, 0.5 mg/kg; for AUC: AUC (area under the concentration vs time curve); for MRT: MRT (mean residence time)
[2] = man, cited from earlier work
[3] = cited from earlier work
[4] = administered in a cream; cited from earlier work
[5] = Procedure: Human skin samples were obtained from white female patients undergoing breast reduction surgery and prepared for in vitro permeation studies. Samples were stratum corneum from breasts of patients (Sample A) and (Samples B & C). A 2.0 cm^2 section of the skin tissue was placed in a Franz cell holder and maintained under phosphate buffered saline (PBS: 0.01M phosphate, 0.9% NaCl, pH 6.0) until testing. PBS (6.8 to 7.3 ml) was placed on the receptor side of the Franz cell. […] The cell was incubated at 35±1° C. A 250 μl sample was taken from the receptor medium at the following times: 0, 1/2, 1, 2, 4, and 6 hours. An equal volume of PBS was replaced each time a sample was withdrawn.
Samples were pre-filtered (0.45 μm) prior to injection. Samples (50 μl) were injected on an Altima (Alltech Associates) C18 column (15 cm×4.3 mm) with guard column. The mobile phase consisted of a 60:40 mixture of 5 mM sodium dodecylsulfate in 1 mM NH4 PO4 buffer, pH 3.0 and acetonitrile.

[6] = rabbit
[7] = sc, model-dependent, subcutaneous, n=6, mean
[8] = topical or ocular, model-independent
[9] = in vivo, topical or ocular, 0.5 mg/kg
[10] = subcutaneous, 0.5 mg/kg, n=6, mean

Structure (SMILES): N[C@@H](Cc1ccc(O)c(O)c1)C(=O)O [levodopa]
patients with movement abnormalities (Parkinson's disease): 40-60 % of patients

antioxidant suitability for apomorphine HCl emulsions and gels [1]: acceptable antioxidant
Structure (SMILES): N[C@@H](CCC(=O)N[C@@H](CS)C(=O)NCC(=O)O)C(=O)O [glutathione]

Structure (SMILES): CN1CCc2cccc3c2[C@H]1Cc1ccc(O)c(O)c1-3 [Apomorphine, apomorphine]
local adverse effect (skin): No local adverse effect
CL/F (in vivo; sc): 31 ± 5 mL/min/kg
Cmax (in vivo; sc): 331 ± 46 ng/mL
Tmax (in vivo; sc): 25.8 min
concentration at 4 h (in vivo; sc): 3 ± 1 ng/mL
k el (in vivo; sc): 0.00035 s⁻¹
AUC (in vivo; [7]): 309 ng·h/mL
AUC (in vivo; sc, model-independent): 297 ng·h/mL
MRT (in vivo; [7]): 52 min
MRT (in vivo; sc, model-independent): 50 min
Vd/F (in vivo; sc, Vd (apparent volume of distribution)): 1.45 ± 0.12 L/kg
Vd/F (in vivo; sc, Vdss, model-dependent): 1.1 ± 0.3 L/kg
CL/F (in vivo; topical or ocular): 37 ± 1 mL/min/kg
Cmax (in vivo; topical or ocular): 56 ± 12 ng/mL
Tmax (in vivo; topical or ocular): 29.4 min
k el (in vivo; topical or ocular): 0.000233 s⁻¹
AUC (in vivo; [8]): 104 ng·h/mL
MRT (in vivo; [8]): 168 min
Vd/F (in vivo; topical or ocular, Vd (apparent volume of distribution)): 2.72 ± 0.36 L/kg
Vd (mean) ([2]; i.v. injection): 2 L/kg
Vd (mean) ([2]; subcutaneous injection): 2 L/kg
tmax (range) ([2]; subcutaneous injection): 7 to 16 min
duration of action ([3]; Parkinson's disease, movement disorders): short duration of action
adverse effects of oral or sublingual administration ([3]; oral or sublingual): stomatitis, and the development of buccal ulcers
breakdown in the liver ([3]; oral or sublingual): breakdown of the drug in the liver
plasma levels of apomorphine [4]: No detectable plasma levels
FLUX, AVERAGE [5]: 1.61 μg/cm^2 /hr
In vitro transdermal permeation, TIME 0 hours [5]: 0
In vitro transdermal permeation, TIME 0 hours, AVERAGE [5]: 0
In vitro transdermal permeation, TIME 0.5 hours, AVERAGE [5]: 0.44
In vitro transdermal permeation, TIME 1 hour, AVERAGE [5]: 2.05
In vitro transdermal permeation, TIME 2 hours, AVERAGE [5]: 2.93
In vitro transdermal permeation, TIME 4 hours, AVERAGE [5]: 7.03
In vitro transdermal permeation, TIME 6 hours, AVERAGE [5]: 6.30
Time for absorption of 10% of the drug ([6]; in vivo): 11.4 ± 3.4 min
Time for absorption of 50% of the drug ([6]; in vivo): 105.7 ± 23.9 min
absorption of the drug after percutaneous administration ([6]; in vivo, 0.5 mg/kg): absorption of the drug in all tested animals
bioequivalence (F) of percutaneous route vs subcutaneous administration ([6]; in vivo, 0.5 mg/kg): 35%
duration of the first, rapid absorption phase ([6]; in vivo, 0.5 mg/kg): 1 h
plasma concentration between the fourth and the fifth hour ([6]; in vivo, 0.5 mg/kg): an increase in the plasma concentration
plasma levels after removal of the gel ([6]; in vivo, 0.5 mg/kg): decreased
time until which absorption persisted ([6]; in vivo, 0.5 mg/kg): 450 min
Time for absorption of 10% of the drug ([6]; in vivo, sc): 4.0 ± 0.7 min
Time for absorption of 50% of the drug ([6]; in vivo, sc): 19.9 ± 2.9 min
absorption of the available amount of the drug after 150 minutes ([6]; in vivo, sc, 0.5 mg/kg): practically complete
k12 (transfer rate constant) ([6]; in vivo, sc, 0.5 mg/kg): 0.005 L/min
k13 (transfer rate constant) ([6]; in vivo, sc, 0.5 mg/kg): 0.057 L/min
k21 (transfer rate constant) ([6]; in vivo, sc, 0.5 mg/kg): 0.027 L/min
ka (exponent of the fitted function) ([6]; in vivo, sc, 0.5 mg/kg): 0.088 L/min
tmax (time to peak plasma concentration) ([6]; in vivo, sc, 0.5 mg/kg): 25.8 ± 4.9 min
α (exponent of the fitted function) ([6]; in vivo, sc, 0.5 mg/kg): 0.044 L/min
plasma level plateau [6, 9]: 10 to 15 ng/mL
stable mean plasma level after the second hour [6, 9]: 10 ng/mL
tmax (time to peak plasma concentration) [6, 9]: 29.4 ± 7.8 min
Cl, comparison of routes ([6]; subcutaneous vs percutaneous, 0.5 mg/kg): not different between the two routes
A (coefficient of the fitted function) [6, 10]: 712 ng/mL
B (coefficient of the fitted function) [6, 10]: 298 ng/mL
C0 (coefficient of the fitted function) [6, 10]: 1,010 ng/ml
